Experimental data: ChEMBL document CHEMBL5528039, “Discovery of a Macrocyclic Influenza Cap-Dependent Endonuclease Inhibitor” (J Med Chem, 2024)

Tested on: Influenza A virus
Assay: Selectivity ratio of EC50 for antiviral activity against Influenza A virus A/PR/8/34 PA-I38T infected in MDCK cells to EC50 for antiviral activity against Influenza A virus A/PR/8/34 (H1N1) infected in MDCK cells
Type: functional
Conditions: not given

| SMILES | Ratio EC50 |
| --- | --- |
| CN1C(=O)c2c(O)c(=O)ccn2N2[C@H](c3ccc(F)cc3)c3cc(F)c(F)cc3OCC[C@@H]12 | 14 |
| CN1C(=O)c2c(O)c(=O)ccn2N2[C@H](c3ccccc3)c3cc(F)c(F)cc3OCC[C@@H]12 | 9.2 |
| CN1C(=O)c2c(O)c(=O)ccn2N2[C@H](c3ccccc3F)c3cc(F)c(F)cc3OCC[C@@H]12 | 7.2 |
| CN1C(=O)c2c(O)c(=O)ccn2N2[C@H](c3ccccc3)c3ccccc3OCC[C@@H]12 | 15 |
| CN1C(=O)c2c(O)c(=O)ccn2N2[C@H](c3ccc(F)c(F)c3)c3cc(F)c(F)cc3OCC[C@@H]12 | 8.4 |
| CC(C)N1C(=O)c2c(O)c(=O)ccn2N2[C@H](c3ccccc3)c3ccccc3OCC[C@@H]12 (racemic) | 8.2 |
| CN1C(=O)c2c(O)c(=O)ccn2N2[C@H](c3ccccc3Br)c3cc(F)c(F)cc3OCC[C@@H]12 (racemic) | 15 |
| CN1C(=O)c2c(O)c(=O)ccn2N2[C@H](c3ccccc3)c3ccc(F)c(F)c3OCC[C@@H]12 (racemic) | 10 |
| O=C1c2c(O)c(=O)ccn2N([C@@H]2c3ccccc3SCc3c2ccc(F)c3F)[C@@H]2COCCN12 [BALOXAVIR] | 68 |

Tested on: Influenza A virus
Assay: Antiviral activity against Influenza A virus A/PR/8/34 PA-I38T infected in MDCK cells assessed as reduction in virus-induced cytopathic effect incubated for 5 days by CCK8 based microplate spectrophotometric analysis
Type: functional, organism-based
Conditions: mdck

| SMILES | EC50 [nM] |
| --- | --- |
| CN1C(=O)c2c(O)c(=O)ccn2N2[C@H](c3ccc(F)cc3)c3cc(F)c(F)cc3OCC[C@@H]12 | 193 |
| CN1C(=O)c2c(O)c(=O)ccn2N2[C@H](c3ccccc3)c3cc(F)c(F)cc3OCC[C@@H]12 | 66 |
| CN1C(=O)c2c(O)c(=O)ccn2N2[C@H](c3ccccc3F)c3cc(F)c(F)cc3OCC[C@@H]12 | 79 |
| CN1C(=O)c2c(O)c(=O)ccn2N2[C@H](c3ccccc3)c3ccccc3OCC[C@@H]12 | 214 |
| CN1C(=O)c2c(O)c(=O)ccn2N2[C@H](c3ccc(F)c(F)c3)c3cc(F)c(F)cc3OCC[C@@H]12 | 211 |
| CC(C)N1C(=O)c2c(O)c(=O)ccn2N2[C@H](c3ccccc3)c3ccccc3OCC[C@@H]12 (racemic) | 435 |
| CN1C(=O)c2c(O)c(=O)ccn2N2[C@H](c3ccccc3Br)c3cc(F)c(F)cc3OCC[C@@H]12 (racemic) | 166 |
| CN1C(=O)c2c(O)c(=O)ccn2N2[C@H](c3ccccc3)c3ccc(F)c(F)c3OCC[C@@H]12 (racemic) | 512 |
| O=C1c2c(O)c(=O)ccn2N([C@@H]2c3ccccc3SCc3c2ccc(F)c3F)[C@@H]2COCCN12 [BALOXAVIR] | 142 |

Same assay, conditions: time 5 day

| SMILES | EC90 [nM] |
| --- | --- |
| CN1C(=O)c2c(O)c(=O)ccn2N2[C@H](c3ccc(F)cc3)c3cc(F)c(F)cc3OCC[C@@H]12 | 370 |
| CN1C(=O)c2c(O)c(=O)ccn2N2[C@H](c3ccccc3)c3cc(F)c(F)cc3OCC[C@@H]12 | 113 |
| CN1C(=O)c2c(O)c(=O)ccn2N2[C@H](c3ccccc3F)c3cc(F)c(F)cc3OCC[C@@H]12 | 123 |
| CN1C(=O)c2c(O)c(=O)ccn2N2[C@H](c3ccccc3)c3ccccc3OCC[C@@H]12 | 336 |
| CN1C(=O)c2c(O)c(=O)ccn2N2[C@H](c3ccc(F)c(F)c3)c3cc(F)c(F)cc3OCC[C@@H]12 | 393 |
| CC(C)N1C(=O)c2c(O)c(=O)ccn2N2[C@H](c3ccccc3)c3ccccc3OCC[C@@H]12 (racemic) | 675 |
| CN1C(=O)c2c(O)c(=O)ccn2N2[C@H](c3ccccc3Br)c3cc(F)c(F)cc3OCC[C@@H]12 (racemic) | 344 |
| CN1C(=O)c2c(O)c(=O)ccn2N2[C@H](c3ccccc3)c3ccc(F)c(F)c3OCC[C@@H]12 (racemic) | 795 |
| O=C1c2c(O)c(=O)ccn2N([C@@H]2c3ccccc3SCc3c2ccc(F)c3F)[C@@H]2COCCN12 [BALOXAVIR] | 232 |

Tested on: Influenza A virus
Assay: Selectivity ratio of EC50 for antiviral activity against baloxavir-resistant Influenza A virus A/PR/8/34 infected in MDCK cells to EC50 for antiviral activity against Influenza A virus A/PR/8/34 (H1N1) infected in MDCK cells
Type: functional
Conditions: not given

| SMILES | Ratio EC50 |
| --- | --- |
| CN1C(=O)c2c(O)c(=O)ccn2N2[C@H](c3ccccc3)c3cc(F)c(F)cc3OCC[C@@H]12 | 9.2 |
| O=C1c2c(O)c(=O)ccn2N([C@@H]2c3ccccc3SCc3c2ccc(F)c3F)[C@@H]2COCCN12 [BALOXAVIR] | 68 |

Tested on: Influenza A virus
Assay: Antiviral activity against baloxavir-resistant Influenza A virus A/PR/8/34 infected in MDCK cells assessed as reduction in virus-induced cytopathic effect incubated for 5 days by CCK8 based microplate spectrophotometric analysis
Type: functional, organism-based
Conditions: mdck

| SMILES | EC50 [nM] |
| --- | --- |
| CN1C(=O)c2c(O)c(=O)ccn2N2[C@H](c3ccccc3)c3cc(F)c(F)cc3OCC[C@@H]12 | 66 |
| O=C1c2c(O)c(=O)ccn2N([C@@H]2c3ccccc3SCc3c2ccc(F)c3F)[C@@H]2COCCN12 [BALOXAVIR] | 142 |

Same assay, conditions: time 5 day

| SMILES | EC90 [nM] |
| --- | --- |
| CN1C(=O)c2c(O)c(=O)ccn2N2[C@H](c3ccccc3)c3cc(F)c(F)cc3OCC[C@@H]12 | 113 |
| O=C1c2c(O)c(=O)ccn2N([C@@H]2c3ccccc3SCc3c2ccc(F)c3F)[C@@H]2COCCN12 [BALOXAVIR] | 232 |
